This is an account of results in patent US8173841B2, “Tetrahydro-naphthalene derivatives” (Xention Limited, priority 2003, dated 2012).

The structures appear in SMILES notation.

One data set deals with T1, human VR1 (Homo sapiens, UniProt Q8NER1).
T1 construct: expressed in transfected cells
In words: Capsaicin-induced Ca2+ influx in the human VR1-transfected CHO cell line (Assay 1). It is filed as cell-based. To be noted: human VR1-CHOluc9aeq cells, stimulation with 10 nM capsaicin, Fluo-3 AM / FDSS-3000; compounds of purity about 40 to 90%; read-out: Activity Class (IC50 of capsaicin-induced Ca2+ influx). The source says:
[Measurement of Capsaicin-Induced Ca^2+ Influx in the Human VR1-Transfected CHO Cell Line] (Assay 1)
(1) Establishment of the Human VR1-CHOluc9aeq Cell Line
Human vanilloid receptor (hVR1) cDNA was cloned from libraries of axotomized dorsal root ganglia (WO 00/29577). The cloned hVR1 cDNA was constructed with pcDNA3 vector and transfected into a CHOluc9aeq cell line. The cell line contains aequorin and CRE-luciferase reporter genes as read-out signals. The transfectants were cloned by limiting dilution in selection medium (DMEM/F12 medium (Gibco BRL) supplemented with 10% FCS, 1.4 mM Sodium pyruvate, 20 mM HEPES, 0.15% Sodium bicarbonate, 100 U/ml penicillin, 100 μg/ml streptomycin, 2 mM glutamine, non-essential amino acids and 2 mg/ml G418). Ca^2+ influx was examined in the capsaicin-stimulated clones. A high responder clone was selected and used for further experiments in the project. The human VR1-CHOluc9aeq cells were maintained in the selection medium and passaged every 3-4 days at 1−2.5×10^5 cells/flask ([…]).
(2) Measurement of Ca^2+ influx using FDSS-3000
Human VR1-CHOluc9aeq cells were suspended in a culture medium which is the same as the selection medium except for G418 and seeded at a density of 1,000 cells per well into 384-well plates (black walled clear-base/Nalge Nunc International). Following the culture for 48 hrs the medium was changed to 2 μM Fluo-3 AM (Molecular Probes) and 0.02% Puronic F-127 in assay buffer (Hank's balanced salt solution (HBSS), 17 mM HEPES (pH7.4), 1 mM Probenecid, 0.1% BSA) and the cells were incubated for 60 min at 25° C. After washing twice with assay buffer the cells were incubated with a test compound or vehicle for 20 min at 25° C. Mobilization of cytoplasmic Ca^2+ was measured by FDSS-3000 (λex=488 nm, λem=540 nm/Hamamatsu Photonics) for 60 sec after the stimulation with 10 nM capsaicin. Integral R was calculated and compared with controls.
The data corresponds to the compounds as yielded by solid phase synthesis and thus to levels of purity of about 40 to 90%. For practical reasons, the compounds are grouped in four classes of activity as follows: IC50=A (< or =) 0.1 μM<B (< or =) 0.5 μM<C (< or =) 1 μM<D

T1 sequence (Q8NER1 whole entry): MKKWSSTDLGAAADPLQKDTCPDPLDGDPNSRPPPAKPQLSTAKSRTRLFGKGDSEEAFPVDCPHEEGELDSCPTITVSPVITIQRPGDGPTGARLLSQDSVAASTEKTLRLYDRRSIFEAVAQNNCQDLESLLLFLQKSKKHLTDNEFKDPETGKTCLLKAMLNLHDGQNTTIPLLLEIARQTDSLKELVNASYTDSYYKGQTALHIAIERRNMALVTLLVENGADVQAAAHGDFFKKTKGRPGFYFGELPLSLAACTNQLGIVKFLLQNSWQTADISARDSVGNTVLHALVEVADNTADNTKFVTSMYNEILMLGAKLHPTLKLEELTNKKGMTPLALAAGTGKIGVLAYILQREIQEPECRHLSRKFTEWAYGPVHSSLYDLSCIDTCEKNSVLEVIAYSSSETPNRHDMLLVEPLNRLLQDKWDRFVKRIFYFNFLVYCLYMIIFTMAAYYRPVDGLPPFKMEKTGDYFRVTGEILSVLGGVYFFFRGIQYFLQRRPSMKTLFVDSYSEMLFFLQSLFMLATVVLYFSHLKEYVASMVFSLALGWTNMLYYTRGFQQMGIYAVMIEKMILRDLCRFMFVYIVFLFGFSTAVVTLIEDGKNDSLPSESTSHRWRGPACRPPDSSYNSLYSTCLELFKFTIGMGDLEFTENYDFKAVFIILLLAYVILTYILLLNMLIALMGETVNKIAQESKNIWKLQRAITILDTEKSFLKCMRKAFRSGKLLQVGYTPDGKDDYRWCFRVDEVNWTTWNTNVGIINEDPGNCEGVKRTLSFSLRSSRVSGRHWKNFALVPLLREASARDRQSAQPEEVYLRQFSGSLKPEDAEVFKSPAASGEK

For orientation: IC50 means the concentration that gives 50% inhibition. For orientation: melting point means the temperature, or range, at which the solid turns liquid. Turning to `COc1ccc(-c2ccc(CNC(=O)Nc3cccc4c3CC(O)CC4)cc2)cc1OC` (stereo not drawn) [Example 1-47], the melting point was 205 to 206 °C. For the same compound, the IC50 at human VR1 was 500 to 1000 nM.
The corresponding values for `O=C(NCc1ccc(-c2ccccc2F)cc1)Nc1cccc2c1CC(O)CC2` (stereo not drawn) [Example 1-48] are 187 to 188 °C and below 100 nM.
Taken in the same sequence, the figures for `O=C(NCc1ccc(-c2ccc(F)cc2F)cc1)Nc1cccc2c1CC(O)CC2` (stereo not drawn) [Example 1-49] were 191 to 192 °C and below 100 nM.
Compound `O=C(NCc1ccc(-c2c(F)cccc2F)cc1)Nc1cccc2c1CC(O)CC2` (stereo not drawn) [Example 1-50] yielded a melting point of 204 to 205 °C. At human VR1, the IC50 was below 100 nM.
Take `Cc1cc(C)cc(-c2ccc(CNC(=O)Nc3cccc4c3CC(O)CC4)cc2)c1` (stereo not drawn) [Example 1-51]: the melting point was 205 to 206 °C. The IC50 at human VR1 is below 100 nM.
With `CC(C)c1ccc(-c2ccc(CNC(=O)Nc3cccc4c3CC(O)CC4)cc2)cc1` (stereo not drawn) [Example 1-52], the melting point was in the range of 202 to 203 °C. Moreover, the IC50 on human VR1 is below 100 nM.
On to `O=C(NCc1ccc(-c2cc(Cl)cc(Cl)c2)cc1)Nc1cccc2c1CC(O)CC2` (stereo not drawn) [Example 1-53], for which the melting point was in the range of 204 to 205 °C. Moreover, at human VR1, the IC50 is below 100 nM.
`O=C(NCc1ccc(-c2cccc([N+](=O)[O-])c2)cc1)Nc1cccc2c1CC(O)CC2` (stereo not drawn) [Example 1-54] came in with a melting point of 206 to 207 °C. The 50% inhibitory concentration (IC50) on human VR1 is below 100 nM.
The corresponding values for `O=C(NCc1cccc(-c2ccc(F)cc2)c1)Nc1cccc2c1CC(O)CC2` (stereo not drawn) [Example 1-55] are 194 to 195 °C and below 100 nM.
Take `O=C(NCc1cccc(-c2cccc(OC(F)(F)F)c2)c1)Nc1cccc2c1CC(O)CC2` (stereo not drawn) [Example 1-56]: the melting point fell in the range of 175 to 176 °C. Further, the IC50 on human VR1 is below 100 nM.
The corresponding values for `CN(C)c1ccc(-c2cccc(CNC(=O)Nc3cccc4c3CC(O)CC4)c2)cc1` (stereo not drawn) [Example 1-57] are 207 to 208 °C and below 100 nM.
For the compound `O=C(NCc1cccc(-c2ccc(OC(F)(F)F)cc2)c1)Nc1cccc2c1CC(O)CC2` (stereo not drawn) [Example 1-58], the melting point is 188 to 189 °C. The IC50 at human VR1 was below 100 nM.
For the compound `O=C(NCc1cccc(-c2cc(C(F)(F)F)cc(C(F)(F)F)c2)c1)Nc1cccc2c1CC(O)CC2` (stereo not drawn) [Example 1-59], the melting point was 208 to 209 °C. Besides, at human VR1, the IC50 is below 100 nM.
For the compound `COc1ccc(OC)c(-c2cccc(CNC(=O)Nc3cccc4c3CC(O)CC4)c2)c1` (stereo not drawn) [Example 1-60], the melting point is 123 to 124 °C. At human VR1, the concentration for half-maximal inhibition (IC50) was below 100 nM.
The corresponding values for `COc1ccccc1-c1cccc(CNC(=O)Nc2cccc3c2CC(O)CC3)c1` (stereo not drawn) [Example 1-61] are 129 to 130 °C and below 100 nM.
Taken in the same sequence, the figures for `COc1ccc(-c2cccc(CNC(=O)Nc3cccc4c3CC(O)CC4)c2)cc1OC` (stereo not drawn) [Example 1-62] were 223 to 224 °C and below 100 nM.
As to `O=C(NCc1cccc(-c2cccc([N+](=O)[O-])c2)c1)Nc1cccc2c1CC(O)CC2` (stereo not drawn) [Example 1-63], the melting point lay within 191 to 192 °C. Moreover, the IC50 on human VR1 was below 100 nM.
The compound `O=C(NCc1cccc(-c2ccc(F)cc2F)c1)Nc1cccc2c1CC(O)CC2` (stereo not drawn) [Example 1-64] registered a melting point of 197 to 198 °C. For the same compound, the half-inhibitory concentration (IC50) at human VR1 is below 100 nM.
As for `O=C(NCc1cccc(-c2ccc(F)c(F)c2)c1)Nc1cccc2c1CC(O)CC2` (stereo not drawn) [Example 1-65], the melting point lay in the range of 188 to 189 °C. The IC50 at human VR1 is below 100 nM.
With `O=C(NCc1cccc(-c2ccccc2F)c1)Nc1cccc2c1CC(O)CC2` (stereo not drawn) [Example 1-66], the melting point was 197 to 198 °C. At human VR1, the IC50 is below 100 nM.
Taken in the same sequence, the figures for `Cc1cc(C)cc(-c2cccc(CNC(=O)Nc3cccc4c3CC(O)CC4)c2)c1` (stereo not drawn) [Example 1-67] were 197 to 198 °C and below 100 nM.
The corresponding values for `CSc1ccc(-c2cccc(CNC(=O)Nc3cccc4c3CC(O)CC4)c2)cc1` (stereo not drawn) [Example 1-68] are 195 to 196 °C and below 100 nM.
For the compound `O=C(NCc1cccc(-c2c(F)cccc2F)c1)Nc1cccc2c1CC(O)CC2` (stereo not drawn) [Example 1-69], the melting point fell in the range of 141 to 142 °C. Also, the IC50 on human VR1 was below 100 nM.
The corresponding values for `CC(C)c1ccc(-c2cccc(CNC(=O)Nc3cccc4c3CC(O)CC4)c2)cc1` (stereo not drawn) [Example 1-70] are 202 to 203 °C and below 100 nM.
With `O=C(NCc1cccc(-c2ccc(F)c(Cl)c2)c1)Nc1cccc2c1CC(O)CC2` (stereo not drawn) [Example 1-71], the melting point is 188 to 189 °C. Moreover, on human VR1, the IC50 is below 100 nM.
Regarding `O=C(NCc1cccc(-c2ccc(Cl)cc2Cl)c1)Nc1cccc2c1CC(O)CC2` (stereo not drawn) [Example 1-72], the melting point is 152 to 153 °C. For the same compound, the IC50 at human VR1 was below 100 nM.
Taken in the same sequence, the figures for `COc1ccc(-c2cccc(CNC(=O)Nc3cccc4c3CC(O)CC4)c2)cc1` (stereo not drawn) [Example 1-73] were 188 to 189 °C and below 100 nM.
The corresponding values for `C[S+]([O-])c1ccc(-c2cccc(CNC(=O)Nc3cccc4c3CC(O)CC4)c2)cc1` (stereo not drawn) [Example 1-74] are 110 to 112 °C and below 100 nM.
Taken in the same sequence, the figures for `O=C(Nc1cccc(-c2cccc3ccccc23)c1)Nc1cccc2c1CC(O)CC2` (stereo not drawn) [Example 1-75] were 223 °C and below 100 nM.
With `CSc1ccc(-c2cc(CNC(=O)Nc3cccc4c3CC(O)CC4)ccc2N2CCCCC2)cc1` (stereo not drawn) [Example 1-76], the melting point was in the range of 113 to 115 °C. Also, the IC50 on human VR1 is below 100 nM.
As to `O=C(Nc1cccc2c1CC(O)CC2)c1ccc(-c2ccc(F)c(F)c2)cc1` (stereo not drawn) [Example 2-1, 3′,4′-Difluoro-N-(7-hydroxy-5,6,7,8-tetrahydronaphthalen-1-yl)biphenyl-4-carboxamide], the melting point lay in the range of 210.4 to 212.7 °C. Moreover, the IC50 on human VR1 is below 100 nM.
Taken in the same sequence, the figures for `CN(C)c1ccc(-c2ccc(C(=O)Nc3cccc4c3CC(O)CC4)cc2)cc1` (stereo not drawn) [Example 2-2] were 222.1 to 225 °C and below 100 nM.
In turn, `COc1ccc(-c2cccc(C(=O)N(C)c3cccc4c3CC(O)CC4)c2)cc1` (stereo not drawn) [Example 2-3] gave a melting point of 150 to 151.2 °C. Also, the half-maximal inhibitory concentration (IC50) on human VR1 was 500 to 1000 nM.
The corresponding values for `O=C(Nc1cccc2c1CC(O)CC2)c1ccc(-c2ccccc2)cc1` (stereo not drawn) [Example 2-4] are 215 to 217 °C and below 100 nM.
The corresponding values for `COc1ccc(-c2cccc(C(=O)Nc3cccc4c3CC(O)CC4)c2)cc1` (stereo not drawn) [Example 2-5] are 193.3 to 196.5 °C and 500 to 1000 nM.
Turning to `O=C(Cc1cccc(-c2ccccc2)c1)Nc1cccc2c1CC(O)CC2` (stereo not drawn) [Example 3-1, 2-Biphenyl-3-yl-N-(7-hydroxy-5,6,7,8-tetrahydronaphthalen-1-yl)acetamide], the melting point is > 134 °C (dec.). Moreover, the IC50 at human VR1 is 500 to 1000 nM.
